A value given as a limit tells only on which side of the number the result lay.

The assay relates to p-IKKa levels in L363 (NIK translocated multiple myeloma) cells. The assay is described as follows: Assay 2: Effect of compounds on p-IKKa levels in L363 (NIK translocated multiple myeloma) cells. The assay is classed as cell-based. The conditions noted are these: Homo sapiens, L-363, 6 h, read-out: Assay 2 IC50 (nM), p-IKKa (Ser 176/180) in BAFF stimulated L363 cells with MG132, 6 h; average if tested more than once. In outline: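 Read-out is p-IKKa Ser176/180 by AlphaLISA SureFire in lysates. Cells were BAFF-primed (250 ng/ml) overnight or left unstimulated, then exposed 6 h at 37 °C to compound with MG132 (10 μM), 0.3% DMSO. IC50 from sigmoidal curve fit, normalized between stimulated and unstimulated controls.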
Consider `CN1CC[C@@](O)(c2cc(-c3cccc(-c4ccnc(NCCC(F)(F)F)n4)n3)no2)C1=O` [Example 435, (R)-3-Hydroxy-1-methyl-3-(3-(6-(2-((3,3,3-trifluoropropyl)amino)pyrimidin-4-yl)pyridin-2-yl)isoxazol-5-yl)pyrrolidin-2-one], for which the IC50 was 50 to 500 nM.
Turning to `CN1CC[C@@](O)(c2cc(-c3cccc(-c4ccnc(N[C@H]5CCOC5)n4)n3)no2)C1=O` [Example 436, (R)-3-Hydroxy-1-methyl-3-(3-(6-(2-(((S)-tetrahydrofuran-3-yl)amino)pyrimidin-4-yl)pyridin-2-yl)isoxazol-5-yl)pyrrolidin-2-one], the IC50 lay in the range of 50 to 500 nM.
The same measure for `CN1CC[C@@](O)(c2cc(-c3cccc(-c4ccnc(NC5CC(F)(F)C5)n4)n3)no2)C1=O` [Example 439, (R)-3-(3-(6-(2-((3,3-Difluorocyclobutyl)amino)pyrimidin-4-yl)pyridin-2-yl)isoxazol-5-yl)-3-hydroxy-1-methylpyrrolidin-2-one]: 50 to 500 nM; for `COC[C@H](C)Nc1nccc(-c2cccc(-c3cc([C@]4(O)CCN(C)C4=O)on3)n2)n1` [Example 440, (R)-3-Hydroxy-3-(3-(6-(2-(((S)-1-methoxypropan-2-yl)amino)pyrimidin-4-yl)pyridin-2-yl)isoxazol-5-yl)-1-methylpyrrolidin-2-one]: 50 to 500 nM; for `C[C@H](Nc1nccc(-c2cccc(-c3cc([C@]4(O)CCN(C)C4=O)on3)n2)n1)C1CC1` [Example 441, (R)-3-(3-(6-(2-(((S)-1-Cyclopropylethyl)amino)pyrimidin-4-yl)pyridin-2-yl)isoxazol-5-yl)-3-hydroxy-1-methylpyrrolidin-2-one]: more than 500 nM.
With `CN1CC[C@@](O)(c2cc(-c3cccc(-c4ccnc(NC5(C)CC5)n4)n3)no2)C1=O` [Example 442, (R)-3-Hydroxy-1-methyl-3-(3-(6-(2-((1-methylcyclopropyl)amino)pyrimidin-4-yl)pyridin-2-yl)isoxazol-5-yl)pyrrolidin-2-one], the IC50 is 50 to 500 nM.
The same measure for `CN1CC[C@@](O)(c2cc(-c3cccc(-c4ccnc(NC5(C6CC6)CC5)n4)n3)no2)C1=O` [Example 443, (R)-3-(3-(6-(2-([1,1′-Bi(cyclopropan)]-1-ylamino)pyrimidin-4-yl)pyridin-2-yl)isoxazol-5-yl)-3-hydroxy-1-methylpyrrolidin-2-one]: 50 to 500 nM.
The same measure for `CN1CC[C@@](O)(c2cc(-c3cccc(-c4ccnc(Nc5cnn6c5OCC(C)(C)C6)n4)n3)no2)C1=O` [Example 444, (R)-3-(3-(6-(2-((6,6-Dimethyl-6,7-dihydro-5H-pyrazolo[5,1-b][1,3]oxazin-3-yl)amino)pyrimidin-4-yl)pyridin-2-yl)isoxazol-5-yl)-3-hydroxy-1-methylpyrrolidin-2-one]: less than 50 nM.
For `CN1CC[C@@](O)(c2cc(-c3cccc(-c4ccnc(NC5CC(C(F)(F)F)C5)n4)n3)no2)C1=O` (stereo partly drawn) [Example 445, (R)-3-Hydroxy-1-methyl-3-(3-(6-(2-((3-(trifluoromethyl)cyclobutyl)amino)pyrimidin-4-yl)pyridin-2-yl)isoxazol-5-yl)pyrrolidin-2-one] the value was more than 500 nM; for `CN1CC[C@@](O)(c2cc(-c3cccc(-c4ccnc(NC5CSC5)n4)n3)no2)C1=O` [Example 446, (R)-3-Hydroxy-1-methyl-3-(3-(6-(2-(thietan-3-ylamino)pyrimidin-4-yl)pyridin-2-yl)isoxaozl-5-yl)pyrrolidin-2-one], 50 to 500 nM; for `CN1CC[C@@](O)(c2cc(-c3cccc(-c4ccnc(NC5CCN(S(=O)(=O)C6CC6)CC5)n4)n3)no2)C1=O` [Example 447, (R)-3-(3-(6-(2-((1-(Cyclopropylsulfonyl)piperidin-4-yl)amino)pyrimidin-4-yl)pyridin-2-yl)isoxazol-5-yl)-3-hydroxy-1-methylpyrrolidin-2-one], 50 to 500 nM.
Consider `CO[C@@H]1CCC[C@H](Nc2nccc(-c3cccc(-c4cc([C@]5(O)CCN(C)C5=O)on4)n3)n2)C1` [Example 449, (R)-3-Hydroxy-3-(3-(6-(2-(((1S,3R)-3-methoxycyclohexyl)amino)pyrimidin-4-yl)pyridin-2-yl)isoxazol-5-yl)-1-methylpyrrolidin-2-one], for which the IC50 lay within 50 to 500 nM.
As for `CN1CC[C@@](O)(c2cc(-c3cccc(-c4ccnc(N[C@H]5CCC[C@@H](O)C5)n4)n3)no2)C1=O` [Example 450, (R)-3-Hydroxy-3-(3-(6-(2-(((1S,3R)-3-hydroxycyclohexyl)amino)pyrimidin-4-yl)pyridin-2-yl)isoxazol-5-yl)-1-methylpyrrolidin-2-one], the IC50 is 50 to 500 nM.
With `CN1CC[C@@](O)(c2cc(-c3cccc(-c4ccnc(NC5CCC(C(F)(F)F)CC5)n4)n3)no2)C1=O` (stereo partly drawn) [Example 451, (R)-3-Hydroxy-1-methyl-3-(3-(6-(2-((4-(trifluoromethyl)cyclohexyl)amino)pyrimidin-4-yl)pyridin-2-yl)isoxazol-5-yl)pyrrolidin-2-one], the IC50 was more than 500 nM.
With `CN1CC[C@@](O)(c2cc(-c3cccc(-c4ccnc(NC5CCOCC5)n4)n3)no2)C1=O` [Example 452, (R)-3-Hydroxy-1-methyl-3-(3-(6-(2-((tetrahydro-2H-pyran-4-yl)amino)pyrimidin-4-yl)pyridin-2-yl)isoxazol-5-yl)pyrrolidin-2-one], the IC50 was 50 to 500 nM.
The same measure for `CN1CC[C@@](O)(c2cc(-c3cccc(-c4ccnc(NC5CCC5)n4)n3)no2)C1=O` [Example 453, (R)-3-(3-(6-(2-(Cyclobutylamino)pyrimidin-4-yl)pyridin-2-yl)isoxazol-5-yl)-3-hydroxy-1-methylpyrrolidin-2-one]: 50 to 500 nM.
As for `CN1CC[C@@](O)(c2cc(-c3cccc(-c4ccnc(N[C@H]5CCCOC5)n4)n3)no2)C1=O` [Example 454, (R)-3-Hydroxy-1-methyl-3-(3-(6-(2-(((S)-tetrahydro-2H-pyran-3-yl)amino)pyrimidin-4-yl)pyridin-2-yl)isoxaozl-5-yl)pyrrolidin-2-one], the IC50 lay in the range of 50 to 500 nM.
Turning to `CN1CC[C@@](O)(c2cc(-c3cccc(-c4ccnc(N[C@@H]5CCCOC5)n4)n3)no2)C1=O` [Example 455, (R)-3-Hydroxy-1-methyl-3-(3-(6-(2-(((R)-tetrahydro-2H-pyran-3-yl)amino)pyrimidin-4-yl)pyridin-2-yl)isoxazol-5-yl)pyrrolidin-2-one], the IC50 is more than 500 nM.
With `CN1CC[C@@](O)(c2cc(-c3cccc(-c4ccnc(N[C@@H]5CCOC5)n4)n3)no2)C1=O` [Example 460, (R)-3-Hydroxy-1-methyl-3-(3-(6-(2-(((R)-tetrahydrofuran-3-yl)amino)pyrimidin-4-yl)pyridin-2-yl)isoxazol-5-yl)pyrrolidin-2-one], the IC50 was 50 to 500 nM.
For `CNC(=O)c1cc(Nc2nccc(-c3cccc(-c4cc([C@]5(O)CCN(C)C5=O)on4)n3)n2)nn1C(C)C` [Example 464, (R)-3-((4-(6-(5-(3-Hydroxy-1-methyl-2-oxopyrrolidin-3-yl)isoxazol-3-yl)pyridin-2-yl)pyrimidin-2-yl)amino)-1-isopropyl-N-methyl-1H-pyrazole-5-carboxamide] the value was less than 50 nM; for `CN1CC[C@@](O)(c2cc(-c3cccc(-c4ccnc(NCC5(O)CC5)n4)n3)no2)C1=O` [Example 466, (R)-3-Hydroxy-3-(3-(6-(2-(((1-hydroxycyclopropyl)methyl)amino)pyrimidin-4-yl)pyridin-2-yl)isoxazol-5-yl)-1-mehtylpyrrolidin-2-one], more than 500 nM.

The values above are taken from patent US20250282768A1 (Janssen Pharmaceutica NV, priority 2022, published 2025).
